Assay results as given in US11161837B2, “Benzofuran derivatives for the treatment of hepatitis C” (BRISTOL-MYERS SQUIBB COMPANY, priority 2016, dated 2021).

Legend:
[1] = tested on: genotype 1b (Con-1) HCV replicon in Huh-7 cells; assay: HCV replicon luciferase assay; type: cell-based; settings: 1b replicon, Huh-7, Renilla luciferase, 3 days incubation
Description: The cell lines used to evaluate compounds consist of a human hepatocyte derived cell line (Huh-7) that constitutively expresses a genotype 1b (Con-1) HCV replicon or a genotype 1b (Con-1) HCV replicon with an asparagine replacing the cysteine at amino acid 316, or a genotype 2a (JFH-1) replicon, containing a Renilla luciferase reporter gene. These cells were maintained in Dulbecco's modified Eagle medium (DMEM) containing 10% FBS, 100 U/mL penicillin/streptomycin and 1.0 mg/mL G418.
HCV Replicon Luciferase Assay.
To evaluate compound efficacy, titrated compounds were transferred to sterile 384-well tissue culture treated plates, and the plates were seeded with HCV replicon cells (50 μL at a density of 2.4×10^3 cells/well) in DMEM containing 4% FBS (final DMSO concentration at 0.5%). After 3 days incubation at 37° C., cells were analyzed for Renilla Luciferase activity using the EnduRen substrate (Promega cat # E6485) according to the manufacturer's directions. Briefly, the EnduRen substrate was diluted in DMEM and then added to the plates to a final concentration of 7.5 μM. The plates were incubated for at least 1 h at 37° C. then read on a Viewlux Imager (PerkinElmer) using a luminescence program. The 50% effective concentration (EC50) was calculated using the four-parameter logistic formula noted above.

[2] = target: T1, NS5B proteins of HCV genotype 1b (Con1) (Hepatitis C virus genotype 1b, UniProt Q9WMX2); assay: HCV NS5B RdRp enzyme assay; type: biochemical; settings: 1b enzyme
T1 construct: Each untagged protein was expressed with an 18 amino acid C-terminal truncation to enhance the solubility; made in house; host or cells: E. coli BL21(DE3), pET21a
Description: HCVNS5B RdRp Cloning, Expression, and Purification.
The cDNA encoding NS5B proteins of HCV genotype 1b (Con1), a genotype 1b variant with amino acid 316 mutated from cysteine to asparagine, and genotype 2a (JFH-1), were cloned into the pET21a expression vector. Each untagged protein was expressed with an 18 amino acid C-terminal truncation to enhance the solubility. The E. coli competent cell line BL21(DE3) was used for expression of the protein. Cultures were grown at 37° C. for ˜4 hours until the cultures reached an optical density of 2.0 at 600 nm. The cultures were cooled to 20° C. and induced with 1 mM IPTG. Fresh ampicillin was added to a final concentration of 50 μg/mL and the cells were grown overnight at 20° C.
Cell pellets (3 L) were lysed for purification to yield 15-24 mgs of purified NS5B. The lysis buffer consisted of 20 mM Tris-HCl, pH 7.4, 500 mM NaCl, 0.5% triton X-100, 1 mM DTT, 1 mM EDTA, 20% glycerol, 0.5 mg/mL lysozyme, 10 mM MgCl2, 15 ug/mL deoxyribonuclease I, and Complete TM protease inhibitor tablets (Roche). After addition of the lysis buffer, frozen cell pellets were resuspended using a tissue homogenizer. To reduce the viscosity of the sample, aliquots of the lysate were sonicated on ice using a microtip attached to a Branson sonicator. The sonicated lysate was centrifuged at 100,000×g for 30 minutes at 4° C. and filtered through a 0.2 μm filter unit (Corning).
The protein was purified using two sequential chromatography steps: Heparin sepharose CL-6B and polyU sepharose 4B. The chromatography buffers were identical to the lysis buffer but contained no lysozyme, deoxyribonuclease I, MgCl2 or protease inhibitor and the NaCl concentration of the buffer was adjusted according to the requirements for charging the protein onto the column. Each column was eluted with a NaCl gradient which varied in length from 5-50 column volumes depending on the column type. After the final chromatography step, the resulting purity of the enzyme is >90% based on SDS-PAGE analysis. The enzyme was aliquoted and stored at −80° C.
HCVNS5B RdRp Enzyme Assay.
An on-bead solid phase homogeneous assay was used in a 384-well format to assess NS5B inhibitors (WangY-K, Rigat K, Roberts S, and Gao M (2006) Anal Biochem, 359: 106-111). The biotinylated oligo dT12 primer was captured on streptavidin-coupled imaging beads (GE, RPNQ0261) by mixing primer and beads in 1× buffer and incubating at room temperature for three hours. Unbound primer was removed after centrifugation. The primer-bound beads were resuspended in 3× reaction mix (20 mM Hepes buffer, pH 7.5, dT primer coupled beads, poly A template, ^3H-UTP, and RNAse inhibitor (Promega N2515)). Compounds were serially diluted 1:3 in DMSO and aliquoted into assay plates. Equal volumes (10 μL) of water, 3× reaction mix, and enzyme in 3× assay buffer (60 mM Hepes buffer, pH 7.5, 7.5 mM MgCl2, 7.5 mM KCl, 3 mM DTT, 0.03 mg/mL BSA, 6% glycerol) were added to the diluted compound on the assay plate. Final concentration of components in 384-well assay: 0.36 nM template, 15 nM primer, 0.29 μM ^3H-UTP (0.3 μCi), 1.6 U/μL RNAse inhibitor, 7 nM NS5B enzyme, 0.01 mg/mL BSA, 1 mM DTT, and 0.33 μg/μL beads, 20 mM Hepes buffer, pH 7.5, 2.5 mM MgCl2, 2.5 mM KCl, and 0.1% DMSO.
Reactions were allowed to proceed from 4 to 24 hours at 30° C. For 24 hour reactions, enzyme and inhibitors were pre-incubated for 24 hours before adding template and primer. Reactions were terminated by the addition of 50 mM EDTA (10 μL). After incubating for at least 15 minutes, plates were read on an Amersham LEADseeker multimodality imaging system.
IC50 values for compounds were determined using ten different [I]. IC50 values were calculated from the inhibition using the four-parameter logistic formula y=A+((B−A)/(1+((C/x)^D))), where A and B denote minimal and maximal % inhibition, respectively, C is the IC50, D is hill slope and x represents compound concentration.

T1 sequence (Q9WMX2 2420-2992): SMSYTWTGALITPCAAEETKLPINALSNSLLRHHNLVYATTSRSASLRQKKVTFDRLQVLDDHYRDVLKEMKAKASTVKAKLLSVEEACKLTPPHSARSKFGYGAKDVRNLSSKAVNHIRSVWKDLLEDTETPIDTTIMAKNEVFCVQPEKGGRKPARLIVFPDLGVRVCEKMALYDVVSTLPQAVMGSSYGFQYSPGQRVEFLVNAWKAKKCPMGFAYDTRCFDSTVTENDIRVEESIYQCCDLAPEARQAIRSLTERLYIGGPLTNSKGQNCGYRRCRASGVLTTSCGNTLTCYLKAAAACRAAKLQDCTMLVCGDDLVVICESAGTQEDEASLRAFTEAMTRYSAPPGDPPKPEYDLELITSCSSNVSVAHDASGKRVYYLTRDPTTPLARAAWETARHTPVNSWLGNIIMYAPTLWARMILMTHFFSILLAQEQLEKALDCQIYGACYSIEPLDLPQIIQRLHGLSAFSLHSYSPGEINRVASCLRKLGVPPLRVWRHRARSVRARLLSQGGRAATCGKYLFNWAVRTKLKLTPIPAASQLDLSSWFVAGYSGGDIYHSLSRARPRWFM

With `CNC(=O)c1c(-c2ccc(F)cc2)oc2ccc(-c3cc(C(=O)NC4(c5ncccn5)CC(O)C4)cc(F)c3C)c(F)c12` (single isomer, unassigned) [Example 9b, 4-Fluoro-5-(3-fluoro-5-((3-hydroxy-1-(pyrimidin-2-yl)cyclobutyl)carbamoyl)-2-methylphenyl)-2-(4-fluorophenyl)-N-methylbenzofuran-3-carboxamide] the EC50 [1] was 300 nM and the IC50 [2] was 310 nM.

`CNC(=O)c1c(-c2ccc(F)cc2)oc2ccc(-c3cc(C(=O)NC4(c5ncccn5)CC(OC)(OC)C4)ccc3C)c(F)c12` [Example 7, 5-(5-((3,3-Dimethoxy-1-(pyrimidin-2-yl)cyclobutyl)carbamoyl)-2-methylphenyl)-4-fluoro-2-(4-fluorophenyl)-N-methylbenzofuran-3-carboxamide] was tested, and the EC50 ([1]; Hepatitis C virus, Huh-7, 72 h) was 60 nM and the IC50 [2] was 10 nM.

`CNC(=O)c1c(-c2ccc(F)cc2)oc2ccc(-c3cc(C(=O)NC4(c5ncccn5)CC(OC)C4)c(OC)cc3C)c(F)c12` (single isomer, unassigned) [Example 13b, 4-Fluoro-2-(4-fluorophenyl)-5-(4-methoxy-5-((3-methoxy-1-(pyrimidin-2-yl)cyclobutyl)carbamoyl)-2-methylphenyl)-N-methylbenzofuran-3-carboxamide] showed an EC50 [1] of 6.44 nM and an IC50 [2] of 20 nM.

`CNC(=O)c1c(-c2ccc(F)cc2)oc2ccc(-c3cc(C(=O)NC4(c5ncccn5)CC(O)C4)c(OC)cc3C)c(F)c12` (single isomer, unassigned) [Example 12a, 4-Fluoro-2-(4-fluorophenyl)-5-(5-((3-hydroxy-1-(pyrimidin-2-yl)cyclobutyl)carbamoyl)-4-methoxy-2-methylphenyl)-N-methylbenzofuran-3-carboxamide] was tested, and the EC50 [1] was 430 nM and the IC50 [2] was 760 nM.

Work on `CCCc1cc2oc(-c3ccc(F)cc3)c(C(=O)NC)c2cc1-c1ccc(OC)c(C(=O)NC2(c3ncccn3)CC(OC(F)(F)F)C2)c1` (single isomer, unassigned) [Example 51a, 2-(4-Fluorophenyl)-5-(4-methoxy-3-((1-(pyrimidin-2-yl)-3-(trifluoromethoxy)cyclobutyl)carbamoyl)phenyl)-N-methyl-6-propylbenzofuran-3-carboxamide] yielded an EC50 ([1]; Hepatitis C virus, Huh-7, 72 h) of 20 nM and an IC50 [2] of 50 nM.

In the case of `CCOc1cc2oc(-c3ccc(F)cc3)c(C(=O)NC)c2cc1-c1cccc(C(=O)NC2(c3ncccn3)CC(OC(F)F)C2)c1` (single isomer, unassigned) [Example 67b, 5-(3-((3-(Difluoromethoxy)-1-(pyrimidin-2-yl)cyclobutyl)carbamoyl)phenyl)-6-ethoxy-2-(4-fluorophenyl)-N-methylbenzofuran-3-carboxamide], the EC50 [1] is reported as 6.8 nM and the IC50 [2] is reported as 2.11 nM.

Molecule `CNC(=O)c1c(-c2ccc(F)cc2)oc2ccc(-c3cc(C(=O)NC4(c5ncccn5)CC(OC)C4)ccc3C)c(F)c12` (single isomer, unassigned) [Example 10b, 4-Fluoro-2-(4-fluorophenyl)-5-(5-((3-methoxy-1-(pyrimidin-2-yl)cyclobutyl)carbamoyl)-2-methylphenyl)-N-methylbenzofuran-3-carboxamide] has an EC50 [1] of 4.43 nM and an IC50 [2] of 10 nM.

Work on `CCCc1cc2oc(-c3ccc(F)cc3)c(C(=O)NC)c2cc1-c1ccc(F)c(C(=O)NC2(c3ncccn3)CC(OC(F)(F)F)C2)c1` (single isomer, unassigned) [Example 48b, 5-(4-Fluoro-3-((1-(pyrimidin-2-yl)-3-(trifluoromethoxy)cyclobutyl)carbamoyl)phenyl)-2-(4-fluorophenyl)-N-methyl-6-propylbenzofuran-3-carboxamide] yielded an EC50 [1] of 10 nM and an IC50 [2] of 8.27 nM.

For `CNC(=O)c1c(-c2ccc(F)cc2)oc2cc(CCC(F)(F)F)c(-c3cccc(C(=O)NC4(C)CC(OC(F)F)C4)c3)cc12` (single isomer, unassigned) [Example 59b, 5-(3-((3-(Difluoromethoxy)-1-methylcyclobutyl)carbamoyl)phenyl)-2-(4-fluorophenyl)-N-methyl-6-(3,3,3-trifluoropropyl)benzofuran-3-carboxamide], the EC50 [1] was 20 nM and the IC50 [2] was 10 nM.

`CNC(=O)c1c(-c2ccc(F)cc2)oc2ccc(-c3cc(C(=O)NC4(c5ncccn5)CC(OC)C4)cc(F)c3C)c(F)c12` (single isomer, unassigned) [Example 11a, 4-Fluoro-5-(3-fluoro-5-((3-methoxy-1-(pyrimidin-2-yl)cyclobutyl)carbamoyl)-2-methylphenyl)-2-(4-fluorophenyl)-N-methylbenzofuran-3-carboxamide] showed an EC50 [1] of 40 nM and an IC50 [2] of 90 nM.

For `CNC(=O)c1c(-c2ccc(F)cc2)oc2ccc(-c3cc(C(=O)NC4(c5ncccn5)CC(F)(F)C4)ccc3C)c(F)c12` [Example 15, 5-(5-((3,3-Difluoro-1-(pyrimidin-2-yl)cyclobutyl)carbamoyl)-2-methylphenyl)-4-fluoro-2-(4-fluorophenyl)-N-methylbenzofuran-3-carboxamide], the EC50 ([1]; Hepatitis C virus, Huh-7, 72 h) was 30 nM and the IC50 [2] was 30 nM.

Molecule `CNC(=O)c1c(-c2ccc(F)cc2)oc2ccc(-c3cc(C(=O)NC4(c5ncccn5)CC(O)C4)cc(F)c3C)c(F)c12` (single isomer, unassigned) [Example 9a, 4-Fluoro-5-(3-fluoro-5-((3-hydroxy-1-(pyrimidin-2-yl)cyclobutyl)carbamoyl)-2-methylphenyl)-2-(4-fluorophenyl)-N-methylbenzofuran-3-carboxamide] has an EC50 ([1]; Hepatitis C virus, Huh-7, 72 h) of 470 nM and an IC50 [2] of 570 nM.

Work on `CCCc1cc2oc(-c3ccc(F)cc3)c(C(=O)NC)c2cc1-c1ccc(OC)c(C(=O)NC2(c3ncccn3)CC(OC(F)(F)F)C2)c1` (single isomer, unassigned) [Example 51b, 2-(4-Fluorophenyl)-5-(4-methoxy-3-((1-(pyrimidin-2-yl)-3-(trifluoromethoxy)cyclobutyl)carbamoyl)phenyl)-N-methyl-6-propylbenzofuran-3-carboxamide] yielded an EC50 [1] of 10 nM and an IC50 [2] of 20 nM.

Work on `CNC(=O)c1c(-c2ccc(F)cc2)oc2ccc(-c3cc(C(=O)NC4(c5ncccn5)CC(F)(F)C4)c(OC)cc3C)c(F)c12` [Example 18, 5-(5-(3,3-Difluoro-1-(pyrimidin-2-yl)cyclobutylcarbamoyl)-4-methoxy-2-methylphenyl)-4-fluoro-2-(4-fluorophenyl)-N-methylbenzofuran-3-carboxamide] yielded an EC50 ([1]; Hepatitis C virus, Huh-7, 72 h) of 10 nM and an IC50 [2] of 140 nM.
